From ChEMBL document CHEMBL4732255, “Evaluation of the antiproliferative activity of 106 marine microbial metabolites against human lung cancer cells and potential antiproliferative mechanism of purpuride G” (Bioorg Med Chem Lett, 2021)
The source made the active and inactive calls. The rule behind the calls is not given here.

Key:
PC-9 [1] = assay: Antiproliferative activity against human PC-9 cells assessed as reduction in cell viability incubated for 72 hrs by sulforhodamine B assay; type: functional, cell-based; details: PC-9, 72 h
PC-9 [2] = assay: Cell cycle arrest in human PC-9 cells assessed as accumulation at G0/G1 phase at 5 uM measured after 48 hrs by propidium iodide staining based flow cytometry (reference value: 30.67 to 31.96%); type: functional
NCI-H157 [3] = assay: Inhibition of glycolysis in human NCI-H157 cells assessed as downregulation of PKM2 protein expression at 2 to 5 uM incubated for 24 hrs by western blot analysis; type: functional, cell-based; details: dose 2-5 µM
NCI-H157 [4] = assay: Cell cycle arrest in human NCI-H157 cells assessed as accumulation at G0/G1 phase at 5 uM measured after 48 hrs by propidium iodide staining based flow cytometry (reference value: 56.53 to 56.73%); type: functional
PC-9 [5] = assay: Inhibition of glycolysis in human PC-9 cells assessed as reduction in lactate release at 5 uM incubated for 24 hrs; type: functional, cell-based
NCI-H157 [6] = assay: Induction of apoptosis in human NCI-H157 cells assessed as viable cells at 5 uM measured after 48 hrs by Annexin V-FITC/propidium iodide staining based flow cytometry (reference value: 94.3%); type: functional; details: read-out: Activity
U-87 MG = assay: Antiproliferative activity against human U-87MG cells assessed as reduction in cell viability incubated for 72 hrs by sulforhodamine B assay; type: functional, cell-based, U-87MG ATCC
PC-9 [7] = assay: Inhibition of glycolysis in human PC-9 cells assessed as downregulation of PKM2 protein expression at 2 to 5 uM incubated for 24 hrs by western blot analysis; type: functional, cell-based; details: dose 2-5 µM
PC-9 [8] = assay: Inhibition of glycolysis in human PC-9 cells assessed as reduction in extracellular glucose consumption at 5 uM incubated for 24 hrs; type: functional, cell-based
PC-9 [9] = assay: Induction of apoptosis in human PC-9 cells assessed as downregulation of Bcl-2 protein expression at 2 to 5 uM incubated for 24 hrs by western blot analysis; type: functional, cell-based; details: dose 2-5 µM
U-251 = assay: Antiproliferative activity against human U-251 cells assessed as reduction in cell viability incubated for 72 hrs by sulforhodamine B assay; type: functional, cell-based; details: U-251, 72 h
PC-9 [10] = assay: Induction of apoptosis in human PC-9 cells assessed as upregulation of Bax protein expression at 2 to 5 uM incubated for 24 hrs by western blot analysis; type: functional, cell-based; details: dose 2-5 µM
NCI-H157 [11] = assay: Induction of apoptosis in human NCI-H157 cells assessed as induction of PARP cleavage at 2 to 5 uM incubated for 24 hrs by western blot analysis; type: functional, cell-based; details: dose 2-5 µM
PC-9 [12] = assay: Cell cycle arrest in human PC-9 cells assessed as accumulation at S phase at 5 uM measured after 48 hrs by propidium iodide staining based flow cytometry (reference value: 52.95 to 53.28%); type: functional
NCI-H157 [13] = assay: Induction of apoptosis in human NCI-H157 cells assessed as late apoptotic cells at 5 uM measured after 48 hrs by Annexin V-FITC/propidium iodide staining based flow cytometry (reference value: 1.95 to 2.1%); type: functional
PC-9 [14] = assay: Induction of apoptosis in human PC-9 cells assessed as induction of PARP cleavage at 2 to 5 uM incubated for 24 hrs by western blot analysis; type: functional, cell-based; details: dose 2-5 µM
NCI-H157 [15] = assay: Inhibition of glycolysis in human NCI-H157 cells assessed as downregulation of HK2 protein expression at 2 to 5 uM incubated for 24 hrs by western blot analysis; type: functional, cell-based; details: dose 2-5 µM
NCI-H157 [16] = assay: Cell cycle arrest in human NCI-H157 cells assessed as accumulation at S phase at 5 uM measured after 48 hrs by propidium iodide staining based flow cytometry (reference value: 26.33 to 26.84%); type: functional
PC-9 [17] = assay: Induction of apoptosis in human PC-9 cells assessed as necrotic cells at 5 uM measured after 48 hrs by Annexin V-FITC/propidium iodide staining based flow cytometry (reference value: 0.8%); type: functional
NCI-H1703 = assay: Antiproliferative activity against human NCI-H1703 cells assessed as reduction in cell viability incubated for 72 hrs by sulforhodamine B assay; type: functional, cell-based; details: NCI-H1703, 72 h
NCI-H157 [18] = assay: Inhibition of glycolysis in human NCI-H157 cells assessed as reduction in lactate release at 5 uM incubated for 24 hrs; type: functional, cell-based
PC-9 [19] = assay: Induction of apoptosis in human PC-9 cells assessed as late apoptotic cells at 5 uM measured after 48 hrs by Annexin V-FITC/propidium iodide staining based flow cytometry (reference value: 5.5 to 6.9%); type: functional
BEAS-2B = assay: Cytotoxicity against human BEAS-2B cells assessed as reduction in cell viability incubated for 72 hrs by sulforhodamine B assay; type: cell-based
NCI-H157 [20] = assay: Cell cycle arrest in human NCI-H157 cells assessed as accumulation at G2/M phase at 5 uM measured after 48 hrs by propidium iodide staining based flow cytometry (reference value: 16.62 to 16.94%); type: functional
NCI-H157 [21] = assay: Inhibition of glycolysis in human NCI-H157 cells assessed as reduction in extracellular glucose consumption at 5 uM incubated for 24 hrs; type: functional, cell-based
PC-9 [22] = assay: Induction of apoptosis in human PC-9 cells assessed as early apoptotic cells at 5 uM measured after 48 hrs by Annexin V-FITC/propidium iodide staining based flow cytometry (reference value: 2.55 to 2.8%); type: functional
PC-9 [23] = assay: Inhibition of glycolysis in human PC-9 cells assessed as downregulation of HK2 protein expression at 2 to 5 uM incubated for 24 hrs by western blot analysis; type: functional, cell-based; details: dose 2-5 µM
NCI-H157 [24] = assay: Antiproliferative activity against human NCI-H157 cells assessed as reduction in cell viability measured after 72 hrs by sulforhodamine B assay; type: functional, cell-based; details: NCI-H157, 72 h
A549 [25] = assay: Antiproliferative activity against human A549 cells assessed as reduction in cell viability measured after 72 hrs by sulforhodamine B assay; type: functional, cell-based; details: A549, 72 h
NCI-H157 [26] = assay: Induction of apoptosis in human NCI-H157 cells assessed as early apoptotic cells at 5 uM measured after 48 hrs by Annexin V-FITC/propidium iodide staining based flow cytometry (reference value: 1 to 1.1%); type: functional
NCI-H157 [27] = assay: Induction of apoptosis in human NCI-H157 cells assessed as upregulation of Bax protein expression at 2 to 5 uM incubated for 24 hrs by western blot analysis; type: functional, cell-based; details: dose 2-5 µM
PC-9 [28] = assay: Induction of apoptosis in human PC-9 cells assessed as viable cells at 5 uM measured after 48 hrs by Annexin V-FITC/propidium iodide staining based flow cytometry (reference value: 90.9%); type: functional; details: read-out: Activity
NCI-H1299 = assay: Antiproliferative activity against human NCI-H1299 cells assessed as reduction in cell viability incubated for 72 hrs by sulforhodamine B assay; type: functional, cell-based; details: NCI-H1299, 72 h
NCI-H157 [29] = assay: Antiproliferative activity against human NCI-H157 cells assessed as cell viability at 50 uM measured after 72 hrs by sulforhodamine B assay; type: functional; details: read-out: Activity
NCI-H157 [30] = assay: Induction of apoptosis in human NCI-H157 cells assessed as downregulation of Bcl-2 protein expression at 2 to 5 uM incubated for 24 hrs by western blot analysis; type: functional, cell-based; details: dose 2-5 µM
NCI-H157 [31] = assay: Induction of apoptosis in human NCI-H157 cells assessed as necrotic cells at 5 uM measured after 48 hrs by Annexin V-FITC/propidium iodide staining based flow cytometry (reference value: 2.5%); type: functional
A549 [32] = assay: Antiproliferative activity against human A549 cells assessed as cell viability at 50 uM measured after 72 hrs by sulforhodamine B assay; type: functional; details: read-out: Activity
NCI-H460 = assay: Antiproliferative activity against human NCI-H460 cells assessed as reduction in cell viability incubated for 72 hrs by sulforhodamine B assay; type: functional, cell-based; details: NCI-H460, 72 h
PC-9 [33] = assay: Cell cycle arrest in human PC-9 cells assessed as accumulation at G2/M phase at 5 uM measured after 48 hrs by propidium iodide staining based flow cytometry (reference value: 15.09 to 16.04%); type: functional

IC50 (PC-9 [1]): 2.1 µM
IC50 (U-87 MG): 10.4 µM
IC50 (U-251): 4.5 µM
IC50 (NCI-H1703): 3.6 µM
IC50 (NCI-H157 [24]): 2.9 µM
IC50 (A549 [25]): 3.3 µM
IC50 (NCI-H1299): 2.7 µM
IC50 (NCI-H460): 2.3 µM
SMILES: CC1(C)CC[C@H](O)[C@@]2(C)[C@H]1CC=C1C(=O)OC[C@@]12O
Activity (PC-9 [2]): 55.77%
inhibition (NCI-H157 [3]): Active
Activity (NCI-H157 [4]): 47.83%
inhibition (PC-9 [5]): Active
viability at 5 µM (NCI-H157 [6]): 70.7%
inhibition (PC-9 [7]): Active
inhibition (PC-9 [8]): Active
Activity (PC-9 [9]): Active
Activity (PC-9 [10]): Active
Activity (NCI-H157 [11]): Active
Activity (PC-9 [12]): 22.97%
Activity (NCI-H157 [13]): 18.15%
Activity (PC-9 [14]): Active
inhibition (NCI-H157 [15]): Active
Activity (NCI-H157 [16]): 36.68%
Activity (PC-9 [17]): 23.4%
inhibition (NCI-H157 [18]): Active
Activity (PC-9 [19]): 32.1%
IC50 (BEAS-2B): 6.3 µM
Activity (NCI-H157 [20]): 15.21%
inhibition (NCI-H157 [21]): Active
Activity (PC-9 [22]): 5.7%
inhibition (PC-9 [23]): Active
Activity (NCI-H157 [26]): 6.1%
Activity (NCI-H157 [27]): Active
viability at 5 µM (PC-9 [28]): 38.1%
viability at 50 µM (NCI-H157 [29]): < 50%
Activity (NCI-H157 [30]): Active
Activity (NCI-H157 [31]): 4.9%
viability at 50 µM (A549 [32]): < 50%
Activity (PC-9 [33]): 20.29%
